Measured values taken from EPA's ToxValDB 9.5 (doi:10.2903/j.efsa.2014.3817).

What was measured:
Typhlodromus pyri = experiment: LR50; higher = less toxic; settings: not reported; mortality
Aphidius rhopalosiphi = experiment: LR50; higher = less toxic; settings: not reported; mortality
Anas platyrhynchos = settings: acute; oral; unspecified; mortality
Canidae = settings: chronic; duration: 1 years; oral; Dog Other; clinical chemistry
Apis mellifera = settings: acute, mortality
Folsomia candida = settings: chronic/long-term
Zea sp. = settings: not reported; seedling emergence
Daphnia magna = settings: chronic/long-term; duration: 21 days; reproduction
Colinus virginianus = settings: reproduction developmental
Oryctolagus sp. = settings: reproduction developmental; histopathology: nonneoplastic
Oncorhynchus mykiss = settings: chronic/long-term; duration: 90 days; other

## CC1=NNC(=O)N(/N=C/c2cccnc2)C1 [Pymetrozine]
Typhlodromus pyri
  LR50: > 1200 g/ha
Aphidius rhopalosiphi
  LR50: 75 g/ha
Anas platyrhynchos
  LD50: ≥ 2000 mg/kg-day
Canidae
  NOAEL: 0.57 mg/kg-day
Apis mellifera; dermal
  LD50: > 100 µg/piece
Apis mellifera; oral, unspecified
  LD50: > 62.7 µg/piece
Folsomia candida
  NOEC: 1000 mg/kg
Zea sp.
  NOEC: 150 g/ha
Daphnia magna
  NOEC: 0.025 mg/L
Rattus norvegicus; acute, mortality
  LD50: 3590 mg/kg-day
Rattus norvegicus; reproduction developmental, reproduction
  NOAEL: ≥ 110 mg/kg-day
Rattus norvegicus; subchronic, duration: 90 days, oral, clinical chemistry
  NOAEL: 33 mg/kg-day
Colinus virginianus
  NOEL: 21.8 mg/kg-day
Oryctolagus sp.
  NOAEL: 10 mg/kg-day
Tagia sp.; acute, duration: 14 days, mortality
  LC50: 1100 mg/kg
Tagia sp.; chronic/long-term, duration: 8 weeks
  NOEC: 0.00139 g/ha
Oncorhynchus mykiss
  NOEC: 11.7 mg/L
